Test results taken from EP0036436A1, “Methyl 11alpha,15R-dihydroxy-16,18-methano-16-methyl-9-oxoprost-13E-en-1-oate, a process for its production and composition containing it” (MILES LABORATORIES, INC., priority 1980, dated 1981).
Several values for one entry are separate records, joined by “and”; a condition that tells them apart may be missing. Equal entries are not always repeated.

Key:
tracheobronchial tract = assay: irritancy to the tracheobronchial tract: 10 minute aerosol challenge in conscious cats; type: in vivo; settings: for times less potent an irritant than PGE1: computer program of relative potencies on the data of Tables I and II, PGE1 as standard; for %ΔRR = percent change in respiratory rate / Cough: conscious cats, 10 minute aerosol challenge
Method: PGE1 and the test compounds were dissolved in absolute ethanol to give stock solutions of 10 mg/ml. These stock solutions and an ethanol vehicle were diluted using isotonic saline adjusted with phosphate buffer to pH 7.2.
Specific pathogen free cats (Category III) of either sex from the Laboratory Animals Centre were used. Conscious cats (2-4 kg) were restrained in an adjustable Perspex box with their heads protruding into a separate Perspex chamber with a seal around the neck. The respiratory pattern and rate of each cat was recorded via a Fleisch head pneumotachograph protruding into the top of the chamber. Sound was recorded by a microphone also protruding into the chamber. An aerosol of 1-8µm particle size was generated by a Monaghan 670 Ultrasonic nebulizer and passed to the cat's face via an opening in the front of the chamber. Each cat was challenged initially for 10 minutes with an aerosol of isotonic saline adjusted with phosphate buffer to pH 7.2 plus the appropriate concentration of ethanol. This control challenge was followed by a 10 minute aerosol challenge of the test compound of PGE1 in the appropriate vehicle. This 10 minute challenge period is much greater than the brief period of inhalation likely to be used in man, but it does produce a larger number of coughs and enables us to determine the potency of the analogue relative to PGE1 in producing other unwanted side effects.
Seven days were left between successive challenges to avoid the development of tolerance. Both drugs were tested in 5 cats using a wide range of concentrations of aerosol stock solutions. Each cat was observed during and up to 24 hours after the experiment for other side effects, e.g., sedation, diarrhea, and salivation.

human bronchial muscle = assay: relaxation of the human bronchial muscle relative to PGE1; type: cell-based; settings: for relative potency to PGE1: relaxation of human bronchial muscle, PGE1 as standard
Method: The compounds prepared as described in Examples I and II, i.e., TR-4681 and TR-4690, were tested to determine their activity in the relaxation of the human bronchial muscle relative to PGE1. […] If potency as a bronchodilator were the only criterion upon which a drug of this type were judged, TR-4690 would be preferred. […] This screen and the results observed in using it to test TR-4681 and TR-4690 are as follows: […]

Row | SMILES | times less potent an irritant to the tracheobronchial tract than TR-4690 (tracheobronchial tract; compared with TR-4690) | times less potent an irritant than PGE1 (tracheobronchial tract) | %ΔRR = percent change in respiratory rate (tracheobronchial tract; Conc 1.0 µg/ml) | Cough (tracheobronchial tract; Conc 1.0 µg/ml) | %ΔRR = percent change in respiratory rate (tracheobronchial tract; Conc 10.0 µg/ml) | Cough (tracheobronchial tract; Conc 10.0 µg/ml) | %ΔRR = percent change in respiratory rate (tracheobronchial tract; Conc 50.0 µg/ml) | Cough (tracheobronchial tract; Conc 50.0 µg/ml) | %ΔRR = percent change in respiratory rate (tracheobronchial tract; Conc 100.0 µg/ml) | Cough (tracheobronchial tract; Conc 100.0 µg/ml) | %ΔRR = percent change in respiratory rate (tracheobronchial tract; Conc 500.0 µg/ml) | Cough (tracheobronchial tract; Conc 500.0 µg/ml) | relative potency to PGE1 (human bronchial muscle) | times more potent an irritant than TR-4681 (tracheobronchial tract; compared with TR-4681) | times more potent than TR-4681 as a bronchodilator (human bronchial muscle; relaxing human bronchial muscle, compared with TR-4681)
1 | CCC1CC(C)([C@H](O)/C=C/[C@H]2[C@H](O)CC(=O)[C@@H]2CCCCCCC(=O)OC)C1 (stereo partly drawn) [TR-4681, Methyl 11α,15R-dihydroxy-16,18-methano-16-methyl-9-oxoprost-13E-en-l-oate] | twenty-five times less potent | approximately 50 times | 0% | 0 | +3% | 0 | +41% | 16 | +41% | 11 | +67% | 14 | 1.33 |  | 
2 | COC(=O)CCCCCC[C@H]1C(=O)C[C@@H](O)[C@@H]1/C=C/[C@@H](O)C1(C)CCC1 [TR-4690, Methyl 16,19-cyclo-11α,15R-dihydroxy-16-methyl-20-nor-9-oxoprost-13E-en-l-oate] |  | approximately 2 times | +5% | 6 | +11% | 5 | +26% | 15 | +21% | 1 | +39% | 33 | 3.9 | approximately 25 times | approximately 3 times
3 | CCCCC[C@H](O)/C=C/[C@H]1[C@H](O)CC(=O)[C@@H]1CCCCCCC(=O)O [PGE1, prostaglandin E1] |  |  |  |  |  |  |  |  |  | 33 and 31 |  | 58 and 63 |  |  | 
